Assay results: the supplement of paper PMC13380429

Legend:
HepG2 [1] = experiment: relative viability EC50 (midpoint between 100% and the lowest measured viability); higher = less toxic; settings: 72 h
U2OS [2] = experiment: as above; settings: 72 h
Vero E6 [3] = experiment: as above; settings: 72 h
Caco-2 [4] = experiment: as above; settings: 72 h
[5] = system: A549-ACE2 infected with SARS-CoV-2; experiment: morphology score (similarity to uninfected cells); higher = more like uninfected cells; settings: 24 h
[6] = system: A549-ACE2 infected with SARS-CoV-2; experiment: cell count relative to DMSO; higher = less toxic; settings: 24 h
[7] = system: A549-ACE2 infected with SARS-CoV-2; experiment: SARS-CoV-2 infection rate relative to DMSO; higher = more infection; settings: 24 h
HepG2 [8] = experiment: drug sensitivity score (DSS) for viability; higher = more toxic; extreme values may be limits of the assay; settings: 72 h
U2OS [9] = experiment: as above; settings: 72 h
Vero E6 [10] = experiment: as above; settings: 72 h
Caco-2 [11] = experiment: as above; settings: 72 h
A549-ACE2 = experiment: drug-induced phospholipidosis relative to tamoxifen; higher = more phospholipidosis
HepG2 [12] = experiment: cell viability relative to DMSO; higher = less toxic; settings: 72 h
U2OS [13] = experiment: as above; settings: 72 h
Vero E6 [14] = experiment: as above; settings: 72 h
Caco-2 [15] = experiment: as above; settings: 72 h
Calu-3 [16] = experiment: drug sensitivity score (DSS) for viability; higher = more toxic; extreme values may be limits of the assay; settings: 72 h
Calu-3 [17] = experiment: cell viability relative to DMSO; higher = less toxic; settings: 72 h
Calu-3 [18] = experiment: relative viability EC50 (midpoint between 100% and the lowest measured viability); higher = less toxic; settings: 72 h

C=C1C(=O)O[C@@H]2C[C@@]3(C)CCC[C@H](C)C3=C[C@H]12 [alantolactone]
Settings	drug sensitivity score	relative viability EC50 [nM]
Caco-2 [4]	–	> 10000
Caco-2 [11]	0	–
HepG2 [1]	–	> 10000
HepG2 [8]	0	–
U2OS [2]	–	> 10000
U2OS [9]	0	–
Vero E6 [3]	–	> 10000
Vero E6 [10]	0	–

Settings	SARS-CoV-2 infection rate, [7] [%]	cell count, [6] [%]	cell viability, Caco-2 [15] [%]	cell viability, HepG2 [12] [%]	cell viability, U2OS [13] [%]	cell viability, Vero E6 [14] [%]	morphology score, [5]
1 nM	–	–	94.9	94.8	99.2	94.7	–
10 nM	–	–	99	102	96.4	95.8	–
100 nM	–	–	101	106	101	95.8	–
0.3 µM	104	100	–	–	–	–	0.1
1000 nM	–	–	99.8	104	96.4	96.8	–
3 µM	92	98	–	–	–	–	-0.12
10 µM	91	97	–	–	–	–	-0.07
10000 nM	–	–	89.7	117	96.6	101	–
30 µM	35	9	–	–	–	–	0.21

drug-induced phospholipidosis [%], A549-ACE2
Settings	0.3 µM	0.833333 µM	3.33333 µM	6.66667 µM	10 µM	30 µM
24 h	0.44	-0.52	-2.33	-1.69	-1.05	3.99
48 h	0.11	-0.81	-1.92	-1	0.04	3.39
72 h	2.31	-0.225	-1.83	-1.58	0.848	3.9

Cc1ccc(S(=O)(=O)/C=C/C#N)cc1 [BAY-11-7082]
Settings	drug sensitivity score	relative viability EC50 [nM]
Caco-2 [4]	–	2940
Caco-2 [11]	4.3	–
Calu-3 [16]	2	–
HepG2 [1]	–	2310
HepG2 [8]	7.2	–
U2OS [2]	–	2960
U2OS [9]	5.9	–
Vero E6 [3]	–	2470
Vero E6 [10]	6	–

Settings	SARS-CoV-2 infection rate, [7] [%]	cell count, [6] [%]	cell viability, Caco-2 [15] [%]	cell viability, Calu-3 [17] [%]	cell viability, HepG2 [12] [%]	cell viability, U2OS [13] [%]	cell viability, Vero E6 [14] [%]	morphology score, [5]
1 nM	–	–	92.8	104	94.2	97.2	95.5	–
10 nM	–	–	90.5	101	96.9	98.7	94.4	–
0.1 µM	106	101	–	–	–	–	–	0
100 nM	–	–	95.4	110	101	98.5	99.7	–
0.3 µM	99	98	–	–	–	–	–	-0.16
1 µM	108	95	–	–	–	–	–	-0.29
1000 nM	–	–	97.7	107	89.7	97.2	92.6	–
3 µM	107	84	–	–	–	–	–	-0.27
10000 nM	–	–	27	52.2	0	0.1	12.9	–

drug-induced phospholipidosis [%], A549-ACE2
Settings	0.3 µM	0.833333 µM	3.33333 µM	6.66667 µM	10 µM
24 h	1.81	0.62	1.15	1.47	1.45
48 h	2.31	0.11	-1.24	0.67	2.43
72 h	3.69	-0.813	-2.01	-1.91	-1.18

C[C@@H]1COCCN1c1cc(=O)n2c(n1)N(Cc1cncc(Cl)c1)[C@H](C(F)(F)F)CC2 [SAR405]
Settings	drug sensitivity score	relative viability EC50 [nM]
Caco-2 [11]	8.1	–
Calu-3 [16]	0	–
Calu-3 [18]	–	> 10000
HepG2 [8]	5.2	–
U2OS [9]	2	–
Vero E6 [10]	2.2	–

Settings	SARS-CoV-2 infection rate, [7] [%]	cell count, [6] [%]	cell viability, Caco-2 [15] [%]	cell viability, Calu-3 [17] [%]	cell viability, HepG2 [12] [%]	cell viability, U2OS [13] [%]	cell viability, Vero E6 [14] [%]	morphology score, [5]
1 nM	–	–	84.5	99.7	98.1	97.4	105	–
10 nM	–	–	91.1	97.3	105	96.8	108	–
0.1 µM	94	105	–	–	–	–	–	0.11
100 nM	–	–	80.6	109	101	99.2	104	–
0.3 µM	88	102	–	–	–	–	–	0.09
1 µM	58	114	–	–	–	–	–	0.48
1000 nM	–	–	59.7	104	76.9	96.3	96.9	–
3 µM	31	104	–	–	–	–	–	0.5
10000 nM	–	–	76.3	88.6	55.5	68.9	63.8	–

drug-induced phospholipidosis [%], A549-ACE2
Settings	0.3 µM	0.833333 µM	3.33333 µM	6.66667 µM	10 µM	30 µM
24 h	-2.02	-6.84	10.5	23.4	28.8	39.3
48 h	1.08	-10.5	7.2	36.3	–	–
72 h	3.73	-7.79	5.27	–	–	–
